The values below come from PubChem BioAssay (NCI).

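Five compound concentrations were applied to cells in 96-well plates for 48 hours; endpoints were derived by simple linear interpolation of the resulting dose-response curve. The concentration for 50% growth inhibition is given as GI50. TGI is the concentration that stops growth completely.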

Among the test systems are K-562 leukemia; HL-60(TB) leukemia; UACC-257 melanoma; NCI-H23 lung; UACC-62 melanoma; NCI-H226 lung; DU-145 prostate; SR leukemia; HCT-116 colon; PC-3 prostate.
Common to all, as to assay: NCI-60 cell line screen, 48 h

Take `O=S1c2ccccc2N=C(c2ccc3ccccc3c2)CC1c1ccccc1F` (centres undefined): the TGI with K-562 leukemia, with HL-60(TB) leukemia, in the assay on UACC-257 melanoma, with NCI-H23 lung, with UACC-62 melanoma and in the assay with NCI-H226 lung was above 100 µM throughout.

With `COc1ccc2oc(-c3cc4cc(OC)ccc4o3)cc2c1`, the TGI in the assay on K-562 leukemia, in the assay with HL-60(TB) leukemia, in the assay on UACC-257 melanoma, in the assay with NCI-H23 lung and with UACC-62 melanoma was above 100 µM throughout.

For `Cc1cc(C(=O)N2CCN(C)CC2)c2c(=O)n(-c3ccccc3)c(=O)n(CC(O)CN3CCN(c4ncccn4)CC3)c2n1` (centres undefined), the GI50 is above 100 µM with K-562 leukemia; above 100 µM in the assay with HL-60(TB) leukemia; above 100 µM in the assay on DU-145 prostate; 9.01 µM in the assay with SR leukemia; above 100 µM in the assay on NCI-H23 lung; above 100 µM in the assay with UACC-62 melanoma. For the same compound, the GI50 in the assay with HCT-116 colon and with NCI-H226 lung was above 100 µM each time. The TGI in the assay with K-562 leukemia, in the assay with HL-60(TB) leukemia, with DU-145 prostate, in the assay on SR leukemia, with NCI-H23 lung and in the assay with UACC-62 melanoma was above 100 µM each time. For the same compound, the TGI in the assay with HCT-116 colon and in the assay on NCI-H226 lung was above 100 µM throughout.

As for `CCOC(=O)C/C(N)=C(\C#N)C(=O)OCC`, the TGI in the assay on K-562 leukemia, in the assay on HL-60(TB) leukemia, in the assay with SR leukemia, in the assay with NCI-H23 lung, in the assay on UACC-62 melanoma and with HCT-116 colon was above 100 µM each time. Also, the TGI in the assay on NCI-H226 lung was above 100 µM.

For the compound `CC(C)(C)C1CCP(=O)(c2ccccc2)CC1` (centres undefined), the TGI with K-562 leukemia, with HL-60(TB) leukemia, in the assay on UACC-257 melanoma, in the assay with SR leukemia, with NCI-H23 lung and with UACC-62 melanoma was above 100 µM throughout. For the same compound, the TGI in the assay with HCT-116 colon and in the assay on NCI-H226 lung was above 100 µM in each case.

Turning to `CC(C)(C)C1CCC(CI)(N=[N+]=[N-])CC1` (centres undefined), the TGI in the assay with K-562 leukemia, in the assay with HL-60(TB) leukemia, in the assay on UACC-257 melanoma, with SR leukemia, with NCI-H23 lung and in the assay with UACC-62 melanoma was above 100 µM each time. The TGI in the assay on HCT-116 colon and in the assay with NCI-H226 lung was above 100 µM each time.

Consider `Cc1ccc(S(=O)(=O)Nc2cccc(C)c2C)cc1`, for which the TGI is above 100 µM with K-562 leukemia; 87.1 µM with HL-60(TB) leukemia; above 100 µM with UACC-257 melanoma; above 100 µM with SR leukemia; above 100 µM with NCI-H23 lung; above 100 µM in the assay on UACC-62 melanoma. The TGI with HCT-116 colon and with NCI-H226 lung was above 100 µM in each case.

Turning to `CN(C)CCCNC(=O)c1cccc2nc3ccccc3nc12`, the TGI is 60.4 µM in the assay on K-562 leukemia; 19.5 µM in the assay on UACC-257 melanoma; above 100 µM in the assay on SR leukemia; 33.5 µM in the assay on NCI-H23 lung; above 57.8 µM with UACC-62 melanoma; 34.7 µM in the assay on HCT-116 colon. This compound gave a TGI in the assay with NCI-H226 lung of 39.1 µM.

As for `CC1=C(C(=O)Nc2cccc(C(F)(F)F)c2)C(c2ccccc2F)C(C(=O)Nc2cccc(C(F)(F)F)c2)=C(C)N1`, the TGI with K-562 leukemia came out at 18.6 µM; with HL-60(TB) leukemia, 7.98 µM; in the assay on UACC-257 melanoma, 22.1 µM; with NCI-H23 lung, 17 µM; with HCT-116 colon it was 13.5 µM; in the assay on NCI-H226 lung it was 18.4 µM.

In the case of `O=c1[nH]cc(CO)c(=O)[nH]1`, the GI50 in the assay with PC-3 prostate, in the assay on K-562 leukemia, in the assay with HL-60(TB) leukemia, with UACC-257 melanoma, with SR leukemia and in the assay with NCI-H23 lung was above 100 µM throughout. Further, the GI50 in the assay with UACC-62 melanoma and in the assay on HCT-116 colon was above 100 µM each time. Also, the TGI in the assay on PC-3 prostate, in the assay with K-562 leukemia, in the assay with HL-60(TB) leukemia, with UACC-257 melanoma, with SR leukemia and in the assay with NCI-H23 lung was above 100 µM each time. Besides, the TGI in the assay with UACC-62 melanoma and in the assay on HCT-116 colon was above 100 µM each time.

Take `O=C(N/N=C/c1ccncc1)c1ccc(C(F)(F)F)nc1Nc1cccc(C(F)(F)F)c1`: the GI50 with K-562 leukemia was 2.69 µM; in the assay on HL-60(TB) leukemia it was 1.82 µM; in the assay on DU-145 prostate, 2.59 µM; in the assay on UACC-257 melanoma, 3.78 µM; with SR leukemia it was 0.271 µM; in the assay on NCI-H23 lung, 4.34 µM. Moreover, the GI50 was 2.57 µM with UACC-62 melanoma, 1.4 µM in the assay on HCT-116 colon and 2.65 µM in the assay with NCI-H226 lung. Also, the TGI in the assay on K-562 leukemia turned out to be 11.8 µM; with HL-60(TB) leukemia, 8.2 µM; in the assay with DU-145 prostate it was 6.83 µM; in the assay with UACC-257 melanoma, 10.6 µM; in the assay on SR leukemia, 1.74 µM; with NCI-H23 lung, 16.2 µM. Besides, the TGI in the assay on UACC-62 melanoma came to 8.54 µM; with HCT-116 colon, 10.4 µM; in the assay with NCI-H226 lung, 11 µM.

On to `C=C(CS(=O)(=O)c1ccccc1)C(=O)OCC`, for which the TGI was 35 µM with K-562 leukemia; 25.9 µM in the assay on UACC-257 melanoma; 37.2 µM in the assay with NCI-H23 lung; 13.8 µM in the assay with UACC-62 melanoma; 29.9 µM in the assay with HCT-116 colon; 58.1 µM in the assay with NCI-H226 lung.

`Cc1nn2c(=O)n(-c3cccc(-n4nnc5c(-c6ccccc6)c(C)nn5c4=O)c3C)nnc2c1-c1ccccc1`: the TGI with K-562 leukemia is above 100 µM; in the assay with HL-60(TB) leukemia it was 87.9 µM; in the assay with UACC-257 melanoma, 70.2 µM; in the assay on SR leukemia, 55.8 µM; in the assay with NCI-H23 lung, above 100 µM; with UACC-62 melanoma, above 100 µM. Moreover, the TGI was 30.4 µM with HCT-116 colon and above 100 µM in the assay on NCI-H226 lung.

Consider `COc1cc(-c2ccccc2)c(OC)cc1CCl`, for which the TGI with K-562 leukemia, in the assay with HL-60(TB) leukemia, in the assay on UACC-257 melanoma, with NCI-H23 lung, in the assay with UACC-62 melanoma and in the assay on HCT-116 colon was above 100 µM throughout. Further, the TGI with NCI-H226 lung was above 100 µM.

In the case of `CCOc1ccc(/C=N\N2C(=O)c3ccccc3C2=O)cc1`, the TGI in the assay on K-562 leukemia, in the assay with HL-60(TB) leukemia, with UACC-257 melanoma, in the assay with SR leukemia, in the assay on NCI-H23 lung and in the assay with UACC-62 melanoma was above 100 µM each time. Moreover, the TGI in the assay on HCT-116 colon and with NCI-H226 lung was above 100 µM in each case.
